Test [1] has as its target cdMMP-2 (Homo sapiens, UniProt P08253). In words: MMP microfluorometric profiling assay (fluorogenic Mca-peptide substrate). It counts as biochemical. The method, then: (§1) The tested MMP enzymes were prepared more specifically in the laboratories of the applicants, with the exception of MMP-1. MMP-1 from human rheumatoid synovial fibroblasts was purchased from Calbiochem-Novabiochem Corporation, LaJolla. Preparation of the recombinant catalytic domain of human Gelatinase A (cdMMP-2): The catalytic domain of Pro-Gelatinase A was prepared using an E. coli expression system according to the method described by Kröger et al^[19]. The proenzyme was activated with 0.5 mM APMA at 37°C prior to use in the assay. […] Preparation of PMNL-Gelatinase (MMP-9): Latent PMNL-pro-Gelatinase was prepared from human plasma buffy coat as described by Tschesche et al^[21]. PMNL-pro-Gelatinase was activated prior to use by incubation with Trypsin at 37°C for 10 min. Inactivation of Trypsin was accomplished with TKI. […] The overexpressed protein was isolated as inclusion bodies and the renatured protein was purified by affinity chromatography with a hydroxamate inhibitor coupled column as described^[22]. Preparation of the recombinant catalytic domain of human Collagenase-3 (cdMMP-13): Human pro-cdMMP-13 was prepared using an E. coli expression system according to the method described^[23]. The isolated pro-cdMMP-13 was activated prior to use by incubation with 5 mM HgCl2 for 2 h at 37°C.
The enzymatic activity was measured using a modified version of a resonance energy transfer fluorogenic assay as described^[26]. Progress curves were monitored by following the increase in fluorescence at 393 nm (λex = 328 nm), induced by the cleavage of the (7-methoxycoumarin-4-yl)acetyl-Pro-Leu-Gly-Leu-(3-[2,4-dinitro-phenyl]-L-2,3-diamino-propionyl)-Ala-Arg-NH2 (Mca-Pro-Leu-Gly-Leu-Dpa-Ala-Arg-NH2) fluorogenic substrate by MMPs. The fluorescent MCA-group is quenched by resonance energy transfer to the 2,4-dinitrophenyl group. Matrix metalloproteinases cleave this substrate at the Gly-Leu bond. Cleavage results in the loss of energy transfer and a large increase in fluorescence of the MCA group. This substrate is commercially available from Bachem, Switzerland.
(§2) Enzyme inhibition assays were carried out in MRB which consisted of 50 mM HEPES/NaOH, pH 7.0, 10 mM CaCl2 and 0,02% (w/v) PEG 8000 at 25°C. MMP microfluorometric profiling assay was done in white U-bottomed 96-well plates (Microfluor 1 White, Dynex, USA) with a final substrate concentration of 6 µM MCA-peptide, approximately 0.3 to 5 nM MMP with variable inhibitor concentrations and 2% DMSO vehicle. From a 1.5 mM stock (100% DMSO) the inhibitors were serially diluted with MRB to 15, 10, 5, 3, 1, 0.6, 0.3, 0.1, 0.05, 0.01 and 0.005 µM final assay concentration. Column 1, rows A through H, contained only DMSO for the "enzyme-only" wells in the assay. After preincubation for 30 min at 25°C the reaction was started by addition of substrate and the plate was read on a SpectraFluor Plus (Tecan, Germany) plate reader with excitation at 330 nm and emission at 405 nm with the gain set to 150. Each measurement was done in triplicate to ensure statistically significant results. The experiment was further controlled for background fluorescence of the substrate, for fluorescence of fully cleaved substrate and for fluorescence quenching or augmentation from solutions containing the test compounds.
(§3) Datapoints from eight different MMPs generated on the SpectraFluor Plus were directly visualized on a master Excel spreadsheet. The response of inhibition was determinated for each inhibitor concentration by comparing the amount of hydrolysis (fluorescence units generated over 30 minutes of hydrolysis) of wells containing compound with the "enzyme-only" wells in column 1. With the program GraFit (Erithacus Software Limited) a 4 parameter logistic fit to the dose-response data was used to calculate IC50 values for each compound.

Test [2] concerns the target T1, cdMMP-8 (Homo sapiens, UniProt P22894).
T1 construct: recombinant catalytic domain of human neutrophile Collagenase (cdMMP-8^Met80); made in house; host or cells: E. coli
The description is as above. Type of test: biochemical. The method, then: as §1
The enzymatic activity was measured using a modified version of a resonance energy transfer fluorogenic assay as described^[26]. […] The fluorescent MCA-group is quenched by resonance energy transfer to the 2,4-dinitrophenyl group. Matrix metalloproteinases cleave this substrate at the Gly-Leu bond. Cleavage results in the loss of energy transfer and a large increase in fluorescence of the MCA group. This substrate is commercially available from Bachem, Switzerland.
as §2, with “After preincubation for 30 min at 25°C the reaction was started by addition of substrate and the plate was read on a SpectraFluor Plus (Tecan, Germany) plate reader with excitation at 330 nm and emission at 405 nm with the gain set to 150.” left out
as §3

Structures can show the parent of a compound that is named as a salt. Where two headings read alike, the source gives them in different places.

T1 sequence (P22894 100-262 limits assumed): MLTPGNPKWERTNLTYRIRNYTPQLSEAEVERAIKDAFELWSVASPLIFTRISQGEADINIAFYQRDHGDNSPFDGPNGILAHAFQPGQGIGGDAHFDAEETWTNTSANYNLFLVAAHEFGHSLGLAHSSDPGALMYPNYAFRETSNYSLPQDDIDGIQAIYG
Sequence of cdMMP-2 (P08253 110-446): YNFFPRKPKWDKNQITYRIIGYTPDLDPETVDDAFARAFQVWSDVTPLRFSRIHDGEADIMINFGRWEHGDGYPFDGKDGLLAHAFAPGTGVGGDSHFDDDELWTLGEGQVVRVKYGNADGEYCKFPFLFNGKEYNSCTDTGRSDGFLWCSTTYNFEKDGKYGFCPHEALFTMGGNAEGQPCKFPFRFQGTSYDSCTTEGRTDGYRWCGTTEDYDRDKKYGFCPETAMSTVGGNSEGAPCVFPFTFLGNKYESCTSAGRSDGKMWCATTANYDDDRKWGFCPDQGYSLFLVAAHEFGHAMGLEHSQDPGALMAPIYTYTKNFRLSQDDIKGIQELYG

With `C=CCNC1=NN=C(c2ccc(Cl)cc2)CS1` [Example 31, N-Allyl-5-(4-chlorophenyl)-6H-1,3,4-thiadiazin-2-amine hydrobromide], the IC50 in test [1] is 3.31 µM; in test [2] (read-out: cdMMP-8 IC50) it was 51.9 µM.

In test [1] (cdMMP-2, @ 15 (µM)), `C[C@H](NS(=O)(=O)c1ccccc1)C(=O)NC1=NN=C(c2ccc(C(F)(F)F)cc2)CS1` [Example 4, (2S)-2-[(Phenylsulfonyl)amino]-N-{5-[4-(trifluormethyl)phenyl]-6H-1,3,4-thiadiazin-2-yl}propanamide] showed a percent inhibition of 25%^a)@ 15. The compound also registered an IC50 in test [2] of 0.515 µM.

As usually defined, the IC50 is the concentration at which inhibition is half-maximal.
